The results in this text go back to article PMC8398714, “Synthesis and Evaluation of Biological Activities of Bis(spiropyrazolone)cyclopropanes: A Potential Application against Leishmaniasis” (Molecules, 2021).

The subject of one data set is RKO. The experiment in a line: MTS cell viability assay on RKO cells. It counts as cell-based. To be noted: Homo sapiens, 48 h; for inhibition at 100 µM: Dox 1 µM, mean ± SEM, NA = no activity, read-out: Percentage (%) of inhibition, RKO; for IC50: 15-150 µM, mean ± SEM of triplicates. On the procedure: (§1) Five tumor human cancer cell lines—cerebral astrocytoma (D-384), grade IV prostatic adenocarcinoma (PC-3), mammary adenocarcinoma (MCF-7), human colon carcinoma (RKO) and lung carcinoma (A-549)—along with one immortalized hamster cell line (CHO K-1) were used. The cells PC-3, MCF-7 and RKO were cultured in RPMI-1640, D-384 on DMEM and CHO K-1 on HAM F-12 medium supplemented with 10% fetal bovine serum (FBS, Invitrogen, Karlsruhe, Germany), 1% antibiotic-antimitotic solution (100 units/mL penicillin G, 100 µg/mL streptomycin, and 0.25 µg/mL amphotericin B, Gibco, Grand Island, NY, USA), and 1% L-glutamine (2 mM, Gibco). The cells were incubated at 37 °C in a 5% CO2 atmosphere. The viable cells were counted using the trypan blue exclusion method in a hemocytometer.
(§2) The MTS (5-[3-(carboxymethoxy)phenyl]-3-(4,5-dimethyl-2-thiazolyl)-2-(4-sulfo- phenyl)-2H-tetrazolium inner salt) cell viability assay was used to assess the inhibitory effects of the extracts on the survival of human cancer cell lines. A total of 3–5 × 10^3 cells/well were seeded into 96-well plates and were allowed to adhere for 24 h. […] Each concentration/assay was performed three times. Dimethyl sulfoxide (DMSO) was used as a negative control at a final concentration of 0.1% v/v, and 1 µM Doxorubicin was used as a positive control. The cells were incubated with the treatments for 48 h, after which 20 µL MTS (5 mg/mL, Aqueous One Solution Reagent, Gibco) was added and further incubated for 4 h at 37 °C. The absorbance was measured at 570 nm. The data obtained with cells treated with DMSO were defined to represent 100% viability.
For orientation: Tetrazolium dyes change colour on reduction, which living cells bring about.

Data set [1] is described as follows: DPPH radical scavenging assay. The settings on record: 30 min, 515 nm. On the procedure: The stock solution of the compounds was prepared by dissolving 4 in dimethyl sulfoxide (DMSO) to a concentration of 4 mg/mL. The solution was diluted with methanol until a concentration of 400 µg/mL was obtained and then used immediately.
The experimental procedure was adapted from the literature. Briefly, 100 µL of a 0.2 mM methanol solution of DPPH (2, 2-diphenyl-1-picrylhydrazyl) radical were added to 100 µL of methanolic solutions of 4 prepared as serial two-fold dilutions from the stock solution in 96-well microfilter plates. Standards and edaravone were also prepared in the same concentrations. The mixture was incubated in dark at room temperature for 30 min and the absorbance was read at 515 nm on a Cytation 5 (BioTek) spectrophotometer.
The % DPPH scavenging activity was then calculated by using the following formula:(1) % DPPH scavenging = 100 × [(Asample+DPPH−Asample blank)/(ADPPH−Asolvent)]
The antioxidant activity of the compound was expressed as IC50, which is defined as the concentration that could scavenge 50% of the DPPH free radical. The IC50 values were calculated in GraphPad Prism 7.02 (GraphPad Software, Corp.) The results are given as a mean ± standard deviation (SD) of experiments done in triplicate.
A general note: Loss of DPPH colour is used to gauge radical scavenging.

Another data set concerns HeLa. As to the kind of experiment: MTS cell viability assay on HeLa cells. It counts as cell-based. The settings on record: Homo sapiens, 48 h, Dox 1 µM, mean ± SEM, NA = no activity, read-out: Percentage (%) of inhibition, HeLa.
Another data set has as its system A-549. As to the kind of experiment: MTS cell viability assay on A-549 cells. To be noted: Homo sapiens, A549; 100 µM, 48 h; Dox 1 µM; mean ± SEM; NA = no activity; read-out: Percentage (%) of inhibition, A-549. It counts as cell-based. On the procedure: as §1, §2
Data set [2] is described as follows: Cytotoxicity, MTT assay on RAW 264.7 macrophages. It counts as cell-based. The settings on record: mouse. On the procedure:
Raw 264.7 (ATCC® TIB-71™) was maintained in Dulbecco’s Modified Eagle Medium (DMEM) (Gibco, Invitrogen, Gibco, Carlsbad, CA, USA) supplemented with 10% fetal bovine serum (FBS) (Eurobio, Les Ulis, France) and 100 IU/mL penicillin + 100 μg/mL streptomycin (Gibco), at 37 °C in a 5% CO2 atmosphere. The medium was renewed once a week. The viability was determined using MTT (Thiazolyl Blue Tetrazolium Bromide) dye assay as described before for leishmanicidal activity assessment, with some variations. Here, 5 × 10^4 cells/well in a final volume of 100 µL were deposited into a 96-well plate, in triplicate. Saponin (2.4 mg/mL) and untreated cells were used as positive control and negative control, respectively. A stock solution was prepared in DMSO and immediately diluted in media to obtain different serial concentrations (100–0.01 µM). After 48 h exposure to the compounds, 10 µL/well of MTT (5 mg/mL MTT in PBS) were added, and the plate was incubated at 37 °C for 2 h in the dark. Cells were pelleted by centrifugation at 4400 rpm for 10 min and the media was removed. Then, 100 µL/well of DMSO were added and the absorbance at 570 nm was recorded; a reference wavelength of 630 nm was used for background subtraction.

Where [3] appears, read: RAW cells, 48 h, MTT, read-out: Cytotoxicity CC50.
Setting [4] is: Statistical Analyses S1, unrounded mean of CC50 in RAW cells, unit inferred, read-out: CC50 original values, x.1 (Mean).

Where two headings read alike, the source gives them in different places.

On to `CC1=NN(c2ccccc2)C(=O)[C@@]12C(c1ccccc1[N+](=O)[O-])[C@@]21C(=O)N(c2ccccc2)N=C1C` (relative stereo) [4c, (5R*,6R*)-11-(2-Nitrophenyl)-4,10-dimethyl-2,8-diphenyl-2,3,8,9-tetraazadispiro[4.0.4.1]undeca-3,9-diene-1,7-dione], for which the melting point is 165.1 to 165.5 °C. Moreover, the inhibition at 100 µM in the data set on RKO turned out to be 37.3 ± 1.22%. The molecule also had a half-maximal inhibitory concentration (IC50) in data set [1] greater than 300 µM. Also, the inhibition at 100 µM with HeLa is 24.8 ± 1.74%. Besides, in the data set with A-549, the inhibition at 100 µM was found to be 6.1 ± 0.86%. Further, the 50% cytotoxic concentration (CC50) at 48 h in data set [2] (setting [3]) turned out to be 2.3 ± 0.2 µM. In data set [2] (setting [4]), the CC50 at 48 h is 2.26 µM.

Molecule `COc1ccccc1C1[C@@]2(C(=O)N(c3ccccc3)N=C2C)[C@]12C(=O)N(c1ccccc1)N=C2C` (relative stereo) [4f, (5R*,6R*)-11-(2-Methoxyphenyl)-4,10-dimethyl-2,8-diphenyl-2,3,8,9-tetraazadispiro[4.0.4.1]undeca-3,9-diene-1,7-dione] came in with a melting point of 147.8 to 149 °C. Further, the inhibition at 100 µM with RKO came to 28.7 ± 0.29%. In data set [1], this molecule returned an IC50 greater than 300 µM. In addition, the inhibition at 100 µM in the data set on A-549 came out at 10.4 ± 3.28%. Further, in data set [2] (setting [3]), the CC50 at 48 h was found to be 12.8 ± 1.2 µM. The cytotoxic concentration (CC50) at 48 h in data set [2] (setting [4]) worked out at 12.8 µM.

For the molecule `COc1ccc(C2[C@@]3(C(=O)N(c4ccccc4)N=C3C)[C@]23C(=O)N(c2ccccc2)N=C3C)cc1` (relative stereo) [4e, (5R*,6R*)-11-(4-Methoxyphenyl)-4,10-dimethyl-2,8-diphenyl-2,3,8,9-tetraazadispiro[4.0.4.1]undeca-3,9-diene-1,7-dione], the melting point lay in the range of 163.5 to 165.7 °C. In addition, the inhibition at 100 µM with RKO stood at 36.8 ± 1.55%. Besides, the 50% inhibitory concentration (IC50) in data set [1] is greater than 300 µM. Further, the inhibition at 100 µM with HeLa amounted to 47.8 ± 2.45%. Further, in the data set with A-549, the inhibition at 100 µM worked out at 7.97 ± 1.46%. Also, in data set [2] (setting [3]), the cytotoxic concentration (CC50) at 48 h was found to be 7.3 ± 2 µM. The CC50 at 48 h in data set [2] (setting [4]) worked out at 7.28 µM.

`CC1=NN(c2ccccc2)C(=O)[C@@]12C(c1ccc(C(F)(F)F)cc1)[C@@]21C(=O)N(c2ccccc2)N=C1C` (relative stereo) [4r, (5R*,6R*)-11-(4-Trifluoromethylphenyl)-4,10-dimethyl-2,8-diphenyl-2,3,8,9-tetraazadispiro[4.0.4.1]undeca-3,9-diene-1,7-dione] came in with a melting point of 154.6 to 156.5 °C. Moreover, in the data set with RKO, the inhibition at 100 µM amounted to 64.71 ± 0.52% and the IC50 is 60.7 ± 9.95 µM. The molecule further gave an IC50 in data set [1] greater than 300 µM. In addition, the inhibition at 100 µM in the data set with HeLa came to 50.2 ± 0.52%. Further, the inhibition at 100 µM in the data set on A-549 was 28.6 ± 3.71%. For the same molecule, the CC50 at 48 h in data set [2] (setting [3]) came to 6.5 ± 0.9 µM. Further, the 50% cytotoxic concentration (CC50) at 48 h in data set [2] (setting [4]) stood at 6.48 µM.

The molecule `CC1=NN(c2ccccc2)C(=O)[C@@]12C(c1ccc(OC(F)(F)F)cc1)[C@@]21C(=O)N(c2ccccc2)N=C1C` (relative stereo) [4s, (5R*,6R*)-11-(4-Trifluoromethoxyphenyl)-4,10-dimethyl-2,8-diphenyl-2,3,8,9-tetraazadispiro[4.0.4.1]undeca-3,9-diene-1,7-dione] yielded a melting point of 150.5 to 151.5 °C. Besides, in the data set with RKO, the inhibition at 100 µM was determined as 70.2% and it took 63.8 ± 6.48 µM to reach half-maximal inhibition (IC50). This molecule registered a 50% inhibitory concentration (IC50) in data set [1] greater than 300 µM. Also, in the data set on HeLa, the inhibition at 100 µM stood at 43.6 ± 1.75%. In addition, in the data set with A-549, the inhibition at 100 µM was found to be 24.4 ± 1.36%. The CC50 at 48 h in data set [2] (setting [3]) amounted to 8.6 ± 3.2 µM. In addition, in data set [2] (setting [4]), the CC50 at 48 h is 8.63 µM.

A word on the inhibition: it is how much of the control response was suppressed. The term IC50 denotes the point on the concentration scale where inhibition reaches its midpoint. A high value points to lower potency. As usually defined, the melting point is the temperature of the solid-liquid transition. One may read the CC50 as the concentration at which the toxic effect on the cells reaches its halfway point.
